Data published in ChEMBL document CHEMBL3112424, “Discovery and optimization of pyrimidone indoline amide PI3Kβ inhibitors for the treatment of phosphatase and tensin homologue (PTEN)-deficient cancers” (J Med Chem, 2014).

Assays:
Mus musculus [1] = test: Toxicity in SCID mouse xenografted with PTEN-deficient human PC3 cells assessed as body weight loss at 150 mg/kg, po bid; type: organism-based, PC-3; design: dose 150 mg/kg, route oral; conditions: in vivo
[2] = Cmax in Balb/c mouse plasma at 10 mg/kg, po after 15 to 30 mins by LC-MS/MS analysis; type: ADME, organism-based; design: dose 10 mg/kg, route oral
Mus musculus [3] = test: In vivo inhibition of PI3Kbeta in tumor of po dosed SCID mouse xenografted with BRAF-V600E/PTEN-deficient human UACC62 cells assessed as inhibition of Akt phosphorylation at S473; type: functional, organism-based; conditions: UACC-62
[4] = target: DNA-dependent protein kinase catalytic subunit (Homo sapiens, UniProt P78527); test: Inhibition of DNA-PK (unknown origin)
[5] = Tmax in Balb/c mouse plasma at 100 mg/kg, po by LC-MS/MS analysis; type: ADME, organism-based; design: dose 100 mg/kg, route oral
[6] = target: T1, Phosphatidylinositol 4,5-bisphosphate 3-kinase catalytic subunit beta isoform (Homo sapiens, UniProt P42338); conditions: UACC-62
Target sequence in this assay (P42338 whole entry, looked up, canonical isoform): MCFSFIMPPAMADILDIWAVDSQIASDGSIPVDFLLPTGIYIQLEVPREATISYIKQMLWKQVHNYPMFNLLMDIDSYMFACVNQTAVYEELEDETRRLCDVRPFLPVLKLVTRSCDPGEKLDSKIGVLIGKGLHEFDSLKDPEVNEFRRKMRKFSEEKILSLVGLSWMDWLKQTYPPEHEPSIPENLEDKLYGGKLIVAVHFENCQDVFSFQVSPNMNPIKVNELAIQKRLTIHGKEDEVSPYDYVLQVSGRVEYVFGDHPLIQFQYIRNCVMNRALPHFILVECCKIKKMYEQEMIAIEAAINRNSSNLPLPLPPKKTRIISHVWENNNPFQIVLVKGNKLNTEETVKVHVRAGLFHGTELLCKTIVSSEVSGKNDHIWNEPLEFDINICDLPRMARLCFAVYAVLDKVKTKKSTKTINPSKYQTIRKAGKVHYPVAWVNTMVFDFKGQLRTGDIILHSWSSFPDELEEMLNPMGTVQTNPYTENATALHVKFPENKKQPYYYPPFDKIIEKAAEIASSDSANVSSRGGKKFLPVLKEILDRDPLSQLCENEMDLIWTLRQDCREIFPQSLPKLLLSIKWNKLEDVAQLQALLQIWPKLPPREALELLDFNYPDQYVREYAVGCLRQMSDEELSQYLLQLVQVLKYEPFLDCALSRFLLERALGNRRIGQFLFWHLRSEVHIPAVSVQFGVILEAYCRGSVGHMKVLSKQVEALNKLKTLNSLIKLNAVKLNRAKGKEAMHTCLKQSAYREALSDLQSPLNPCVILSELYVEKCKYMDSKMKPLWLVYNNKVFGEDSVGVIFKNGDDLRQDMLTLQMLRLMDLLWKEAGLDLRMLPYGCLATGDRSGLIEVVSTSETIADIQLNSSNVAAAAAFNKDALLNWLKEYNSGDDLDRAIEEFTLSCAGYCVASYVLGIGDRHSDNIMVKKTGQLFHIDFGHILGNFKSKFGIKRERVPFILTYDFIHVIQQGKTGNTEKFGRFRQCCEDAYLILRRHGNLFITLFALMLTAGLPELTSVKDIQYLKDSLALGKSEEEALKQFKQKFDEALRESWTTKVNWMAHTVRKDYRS
Description: Inhibition of PI3Kbeta-mediated Akt phosphorylation at S473 in BRAF-V600E/PTEN-deficient human UACC62 cells

[7] = Oral bioavailability in Balb/c mouse plasma at 100 mg/kg by LC-MS/MS analysis; type: ADME, organism-based
[8] = Half life in nude rat at 3 mg/kg, iv; type: ADME, organism-based; design: dose 3 mg/kg, route intravenous; conditions: in vivo
[9] = Cmax in nude rat at 10 mg/kg, po; type: ADME, organism-based; design: dose 10 mg/kg, route oral; conditions: in vivo
[10] = Fraction unbound in SCID mouse plasma xenografted with PTEN-deficient human PC3 cells at 100 mg/kg, po; type: ADME, organism-based, PC-3; design: dose 100 mg/kg, route oral
[11] = Apparent permeability in human Caco2 cells at 5 uM after 20 mins; conditions: Caco-2
[12] = target: T1, Phosphatidylinositol 4,5-bisphosphate 3-kinase catalytic subunit beta isoform; test: Inhibition of PI3Kbeta-mediated Akt phosphorylation at S473 in PTEN-deficient human PC3 cells after 0.5 to 2 hrs by Immunoblotting assay; type: cell-based, PC-3
Target sequence in this assay (P42338 whole entry, canonical isoform): as the sequence (P42338 whole entry, looked up, canonical isoform) above

Liver microsome = test: Metabolic stability in dog liver microsomes; type: ADME, Canis lupus familiaris
Mus musculus [13] = test: In vivo inhibition of PI3Kbeta in tumor of SCID mouse xenografted with BRAF-V600E/PTEN-deficient human UACC62 cells assessed as inhibition of Akt phosphorylation at S473 at 200 mg/kg, po up to 6 hrs; type: functional; conditions: UACC-62, 6 h
Mus musculus [14] = test: Toxicity in SCID mouse xenografted with BRAF-V600E/PTEN-deficient human UACC62 cells at 150 mg/kg, po bid; type: organism-based, UACC-62; design: dose 150 mg/kg, route oral; conditions: in vivo
[15] = Tmax in Beagle dog at 10 mg/kg, po; type: ADME, organism-based, Canis lupus familiaris; design: dose 10 mg/kg, route oral; conditions: in vivo
[16] = Cmax in Balb/c mouse plasma at 100 mg/kg, po by LC-MS/MS analysis; type: ADME, organism-based; design: dose 100 mg/kg, route oral
[17] = Cmax in nude rat at 3 mg/kg, iv; type: ADME, organism-based; design: dose 3 mg/kg, route intravenous; conditions: in vivo
[18] = target: T2, Phosphatidylinositol 3-kinase C2 domain-containing subunit gamma (Homo sapiens, UniProt O75747); test: Inhibition of PI3KC2gamma (unknown origin)
T2 sequence (O75747 whole entry): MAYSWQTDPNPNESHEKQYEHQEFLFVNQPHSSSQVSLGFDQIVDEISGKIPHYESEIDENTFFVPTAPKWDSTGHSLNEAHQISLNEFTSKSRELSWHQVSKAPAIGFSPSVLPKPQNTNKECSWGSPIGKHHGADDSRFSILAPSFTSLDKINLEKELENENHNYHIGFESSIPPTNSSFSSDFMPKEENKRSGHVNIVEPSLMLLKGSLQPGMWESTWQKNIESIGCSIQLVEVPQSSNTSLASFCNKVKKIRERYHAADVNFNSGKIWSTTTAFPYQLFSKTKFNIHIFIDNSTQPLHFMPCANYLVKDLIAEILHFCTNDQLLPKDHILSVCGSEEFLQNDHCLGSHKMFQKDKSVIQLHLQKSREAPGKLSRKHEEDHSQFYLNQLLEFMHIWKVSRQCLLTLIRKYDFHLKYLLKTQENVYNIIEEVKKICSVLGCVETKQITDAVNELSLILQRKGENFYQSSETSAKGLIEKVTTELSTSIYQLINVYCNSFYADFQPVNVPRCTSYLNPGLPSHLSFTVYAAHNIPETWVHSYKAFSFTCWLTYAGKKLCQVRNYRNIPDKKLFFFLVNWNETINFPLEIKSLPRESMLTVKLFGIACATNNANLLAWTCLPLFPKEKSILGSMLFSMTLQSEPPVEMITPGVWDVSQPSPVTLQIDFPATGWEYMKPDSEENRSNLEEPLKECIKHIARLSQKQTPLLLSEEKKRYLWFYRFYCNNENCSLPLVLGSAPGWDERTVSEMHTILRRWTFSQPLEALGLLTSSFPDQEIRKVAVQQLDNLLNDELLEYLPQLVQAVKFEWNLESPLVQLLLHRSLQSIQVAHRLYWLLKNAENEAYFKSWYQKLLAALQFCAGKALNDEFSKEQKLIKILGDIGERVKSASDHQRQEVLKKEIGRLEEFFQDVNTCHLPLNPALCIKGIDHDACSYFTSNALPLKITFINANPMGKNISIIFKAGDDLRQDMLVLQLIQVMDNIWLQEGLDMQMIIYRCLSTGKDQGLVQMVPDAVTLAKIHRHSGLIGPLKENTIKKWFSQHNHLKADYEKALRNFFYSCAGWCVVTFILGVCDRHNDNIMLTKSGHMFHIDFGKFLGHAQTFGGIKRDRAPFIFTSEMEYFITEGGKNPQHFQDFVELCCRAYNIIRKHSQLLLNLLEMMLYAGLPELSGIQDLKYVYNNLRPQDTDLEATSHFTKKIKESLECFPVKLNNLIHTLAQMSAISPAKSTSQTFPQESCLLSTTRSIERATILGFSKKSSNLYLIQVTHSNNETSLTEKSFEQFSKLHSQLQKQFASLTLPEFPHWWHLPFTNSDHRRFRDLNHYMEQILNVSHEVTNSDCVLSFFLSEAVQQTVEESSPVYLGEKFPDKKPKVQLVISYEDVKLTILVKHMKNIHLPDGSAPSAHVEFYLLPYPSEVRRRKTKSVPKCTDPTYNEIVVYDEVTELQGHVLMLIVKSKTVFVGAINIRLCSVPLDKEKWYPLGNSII

[19] = target: Phosphatidylinositol 4-phosphate 3-kinase C2 domain-containing subunit alpha (Homo sapiens, UniProt O00443); test: Inhibition of PI3KC2alpha (unknown origin)
[20] = AUC (infinity) in Beagle dog at 3 mg/kg, iv; type: ADME, organism-based, Canis lupus familiaris; design: time infinity, dose 3 mg/kg, route intravenous; conditions: plasma

Phosphatidylinositol 4-phosphate 3-kinase C2 domain-containing subunit alpha, sequence (O00443 whole entry, the tested form may be a part): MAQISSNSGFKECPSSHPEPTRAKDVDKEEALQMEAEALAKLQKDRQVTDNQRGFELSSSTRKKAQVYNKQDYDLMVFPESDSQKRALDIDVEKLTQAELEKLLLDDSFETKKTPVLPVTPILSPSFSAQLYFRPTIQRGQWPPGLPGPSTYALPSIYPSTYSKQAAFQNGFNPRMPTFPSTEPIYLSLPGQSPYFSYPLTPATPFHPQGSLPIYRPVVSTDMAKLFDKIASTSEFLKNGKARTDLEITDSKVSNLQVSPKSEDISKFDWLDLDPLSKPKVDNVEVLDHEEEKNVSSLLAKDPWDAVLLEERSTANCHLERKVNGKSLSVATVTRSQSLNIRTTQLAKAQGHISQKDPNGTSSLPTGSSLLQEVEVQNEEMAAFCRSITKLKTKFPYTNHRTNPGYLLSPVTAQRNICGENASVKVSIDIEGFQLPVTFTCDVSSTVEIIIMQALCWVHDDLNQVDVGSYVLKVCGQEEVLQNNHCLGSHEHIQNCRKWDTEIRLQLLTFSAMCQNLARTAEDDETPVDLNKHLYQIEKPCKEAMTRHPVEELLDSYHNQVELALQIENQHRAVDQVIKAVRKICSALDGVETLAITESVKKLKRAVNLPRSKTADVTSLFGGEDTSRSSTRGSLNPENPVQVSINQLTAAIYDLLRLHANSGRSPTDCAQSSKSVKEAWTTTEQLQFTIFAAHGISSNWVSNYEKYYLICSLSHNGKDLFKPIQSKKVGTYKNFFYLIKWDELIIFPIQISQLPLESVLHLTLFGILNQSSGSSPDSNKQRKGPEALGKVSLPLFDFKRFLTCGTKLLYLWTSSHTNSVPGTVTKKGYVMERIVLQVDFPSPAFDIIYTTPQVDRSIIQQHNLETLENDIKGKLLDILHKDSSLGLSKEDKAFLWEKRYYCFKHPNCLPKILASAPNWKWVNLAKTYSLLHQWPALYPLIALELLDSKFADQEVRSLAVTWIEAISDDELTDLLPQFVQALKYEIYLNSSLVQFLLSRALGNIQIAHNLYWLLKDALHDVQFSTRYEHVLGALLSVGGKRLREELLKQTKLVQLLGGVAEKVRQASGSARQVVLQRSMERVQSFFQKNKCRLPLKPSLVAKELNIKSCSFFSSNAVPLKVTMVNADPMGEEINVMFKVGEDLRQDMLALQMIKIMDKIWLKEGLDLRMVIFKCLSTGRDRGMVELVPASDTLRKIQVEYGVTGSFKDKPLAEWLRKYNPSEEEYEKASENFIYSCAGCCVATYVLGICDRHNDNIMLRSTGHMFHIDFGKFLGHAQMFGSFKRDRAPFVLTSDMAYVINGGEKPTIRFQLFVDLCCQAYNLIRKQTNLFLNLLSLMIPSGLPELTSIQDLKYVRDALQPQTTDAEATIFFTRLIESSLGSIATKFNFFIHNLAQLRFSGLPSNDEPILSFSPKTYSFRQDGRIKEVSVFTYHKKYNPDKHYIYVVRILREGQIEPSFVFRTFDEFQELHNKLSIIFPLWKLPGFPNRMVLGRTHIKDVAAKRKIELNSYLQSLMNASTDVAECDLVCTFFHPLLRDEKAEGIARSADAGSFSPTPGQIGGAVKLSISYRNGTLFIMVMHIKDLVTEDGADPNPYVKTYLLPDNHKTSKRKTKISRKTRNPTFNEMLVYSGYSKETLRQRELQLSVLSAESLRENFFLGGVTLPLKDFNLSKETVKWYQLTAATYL

For C[C@H]1Cc2ccccc2N1C(=O)Cc1nc(N2CCOCC2)cc(=O)[nH]1 [SAR-260301], the Activity (Mus musculus [1]) was “Non-toxic”, the Cmax [2] was 848 ng/mL and the EC50 (Mus musculus [3]) was 4.55 µM. The IC50 [4] was 2 µM, the Tmax [5] was 15 min and the IC90 [6] was 2 µM. The bioavailability [7] was 55%, the half-life [8] was 52.2 min and the Cmax [9] was 1460 ng/mL. It also gave a fraction unbound [10] of 0.4, a Papp at 20 min, 5 µM [11] of 4.8 ×10⁻⁶ cm/s and an IC50 [12] of 0.049 µM. For the same compound, the Stability (Liver microsome) was 5%, the inhibition in vivo at 200 mg/kg (Mus musculus [13]) was over 50% and the Activity (Mus musculus [14]) was “Non-toxic”. The Tmax [15] was 30 min, the Cmax [16] was 8960 ng/mL and the Cmax [17] was 1200 ng/mL. It also gave an IC50 [18] of 3.81 µM, an IC50 [19] of over 10 µM and an AUC(0-inf) [20] of 6580 ng·h/mL.
